What was measured:
CRBN/DDB1 = CRBN/DDB1 (Homo sapiens (Human), UniProt Q96SW2); assay: HTRF binding assay to CRBN/DDB1; conditions: read-out: CRBN HTRF IC50
Description: The binding potency was determined using HTRF assay technology (Perkin Elmer). Compounds were serially diluted in DMSO and 0.2 μL volume was transferred to white 384-well plate.

ER [1] = target: T1, ER (Homo sapiens (Human), UniProt P03372); assay: In-cell western (ICW) ER degradation assay in T47D cells; assay type: cell-based; conditions: 16 hrs; for DC50: ER degradation
T1 sequence (P03372 whole entry): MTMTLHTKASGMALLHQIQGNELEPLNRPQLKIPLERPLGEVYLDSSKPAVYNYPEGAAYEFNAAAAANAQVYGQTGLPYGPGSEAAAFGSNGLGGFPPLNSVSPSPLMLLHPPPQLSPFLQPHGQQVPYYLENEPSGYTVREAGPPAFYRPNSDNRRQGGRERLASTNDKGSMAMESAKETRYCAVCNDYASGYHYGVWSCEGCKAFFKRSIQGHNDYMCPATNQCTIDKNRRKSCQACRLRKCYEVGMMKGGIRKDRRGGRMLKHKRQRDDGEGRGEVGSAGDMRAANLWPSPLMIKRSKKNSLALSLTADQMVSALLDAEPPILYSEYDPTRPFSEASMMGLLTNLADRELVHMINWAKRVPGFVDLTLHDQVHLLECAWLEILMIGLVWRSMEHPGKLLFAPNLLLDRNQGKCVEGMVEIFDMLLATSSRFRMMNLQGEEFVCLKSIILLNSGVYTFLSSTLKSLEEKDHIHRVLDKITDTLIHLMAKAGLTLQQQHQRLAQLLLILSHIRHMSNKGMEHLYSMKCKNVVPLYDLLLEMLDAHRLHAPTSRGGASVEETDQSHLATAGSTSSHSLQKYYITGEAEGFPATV

ER [2] = target: T1, ER; assay: In-cell western (ICW) ER degradation assay in MCF-7 cells; assay type: cell-based; conditions: MCF7, 16 hrs; for DC50: ER degradation; for Dmax: MCF7, maximal ER degradation
ERα_LBD(GST) = ERα_LBD(GST) (Homo sapiens (Human), UniProt P03372); assay: LanthaScreen TR-FRET ERα competitive binding assay; conditions: read-out: ERα HTRF IC50
Chain of ERα_LBD(GST) (P03372 311-547): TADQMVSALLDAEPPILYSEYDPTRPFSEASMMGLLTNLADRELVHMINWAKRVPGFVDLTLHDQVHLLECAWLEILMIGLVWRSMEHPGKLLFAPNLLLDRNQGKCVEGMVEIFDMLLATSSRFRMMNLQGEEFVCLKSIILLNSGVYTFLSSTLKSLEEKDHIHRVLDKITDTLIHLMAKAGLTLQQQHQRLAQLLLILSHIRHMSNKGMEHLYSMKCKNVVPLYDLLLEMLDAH
Description: • 1. ERα_LBD(GST) protein: 4 nM • 2. Tb Anti-GST: 2 nM • 3. Fluormone ES2 Green tracer: 3 nM • 4. Incubation time: 60 min • 5. DMSO: 1% • 6. Assay buffer: Adding 1M DTT to Nuclear receptor Buffer K for final 5 mM DTT. • 7. ZPE: 1% DMSO • 8. HPE: 1 μM ARV_471 • 9. LanthaScreen® TR-FRET ERα Competitive Binding Assay (ThermoFisher, #A15887)
• 1) Cherry pick 2 μL 10 mM compound stock to column 1 of a 384 intermediate plate • 2) Add 18 μL DMSO to column 1 to dilute compound to 1 mM. • 3) Transfer 10 μL 1 mM compound to column 1 of a LDV plate. • 2) Add 6 μl DMSO to column 2-10 of the LDV plate. • 3) Compounds undergo 3-fold serial dilution (3 μL+6 μL) in DMSO. • 4) Transfer 120 nL compound solution to assay plate. • ZPE: 120 nL 100% DMSO
Prepare complete nuclear receptor buffer K by adding 1 M DTT to nuclear receptor buffer K for a final concentration of 5 mM DTT. Complete nuclear receptor buffer K must be prepared fresh daily. Prepare 2× protein solution using complete nuclear receptor buffer K containing 8 nM ERα_LBD(GST) and 4 nM Tb Anti-GST. Then, prepare 2× Fluormone ES2 Green tracer (6 nM) using complete nuclear receptor buffer K. Add 6 μL 2× Fluormone ES2 green tracer into a compound plate (PerkinElmer 6008289) by dragonfly with one-tips-addition. Subsequently, add 6 μL 2× protein solution into the plate. Briefly and gently mix the 384-well plate on a plate shaker and incubate at room temperature protected from light for 60 min. The plate is sealed with a cover to minimize evaporation. Read the plate at wavelengths of 520 nm and 495 nm. Calculate the TR-FRET ratio by dividing the emission signal at 520 nm by the emission signal at 495 nm. Generate a binding curve by plotting the emission ratio vs. the log [ligand]. To determine the IC50 value, fit the data using XL-fit for a sigmoidal dose-response.

MCF-7 cells = assay: cells; conditions: Homo sapiens, MCF7, 144 h, read-out: MCF7 Proliferation IC50 (nM)
Description: (§1) In vitro assay can be accomplished by MCF-7 and T47D Cell Titer Glo (CTG) assay. MCF-7 and T47D cell (From HDB) are cultured in multi-well white plate with phenol red-free RPMI1640+10% CS-FBS+1% P/S medium (e.g., at 1,000 cells/well). On day 0: Cells are treated with compound at certain concentrations (e.g., 0.5 to 10000 nM) (DMSO and Staurosporine as control). On day 0 and day 6: add Cell Titer Glo reagent and read on EnVision after 30 min incubation for data generation.
(§2) • 1) Cell culture medium: phenol red-free RPMI1640+10% CS-FBS, 1% P/S
(§3) Day-1: MCF-7 and T47D cell (From HDB) were cultured in 384-well white plate with phenol red-free RPMI1640+10% CS-FBS+1% P/S medium (1,000 cells/well) for overnight at 37° C., 5% CO2 incubator.
(§4) Day 0: Cells were treated at desired compound concentrations (0.5 to 10000 nM) (DMSO and Staurosporine as control) for Day 6 at 37° C., 5% CO2 incubator.
(§5) Day 0 and Day 6: add Cell TiterGlo reagent and read on EnVision after 30 min incubation for data generation.

T47D cells = assay: cells; conditions: Homo sapiens, 144 h, read-out: T47D Proliferation IC50 (nM)
Description: as §1, §2, §3, §4, §5

Chain of CRBN/DDB1 (Q96SW2 whole entry): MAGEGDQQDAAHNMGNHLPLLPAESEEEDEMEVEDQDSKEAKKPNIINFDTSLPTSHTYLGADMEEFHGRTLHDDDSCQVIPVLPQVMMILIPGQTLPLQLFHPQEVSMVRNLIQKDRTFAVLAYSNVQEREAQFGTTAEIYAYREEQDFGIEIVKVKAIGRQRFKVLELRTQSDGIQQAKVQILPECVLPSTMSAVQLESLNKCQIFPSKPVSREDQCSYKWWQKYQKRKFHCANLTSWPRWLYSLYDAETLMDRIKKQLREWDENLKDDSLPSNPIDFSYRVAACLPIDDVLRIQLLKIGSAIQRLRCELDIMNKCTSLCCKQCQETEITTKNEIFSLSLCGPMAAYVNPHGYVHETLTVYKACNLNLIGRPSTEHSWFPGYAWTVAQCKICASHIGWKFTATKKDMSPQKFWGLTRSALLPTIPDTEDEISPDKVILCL
Chain of CRBN/DDB1 (Q16531 whole entry partner): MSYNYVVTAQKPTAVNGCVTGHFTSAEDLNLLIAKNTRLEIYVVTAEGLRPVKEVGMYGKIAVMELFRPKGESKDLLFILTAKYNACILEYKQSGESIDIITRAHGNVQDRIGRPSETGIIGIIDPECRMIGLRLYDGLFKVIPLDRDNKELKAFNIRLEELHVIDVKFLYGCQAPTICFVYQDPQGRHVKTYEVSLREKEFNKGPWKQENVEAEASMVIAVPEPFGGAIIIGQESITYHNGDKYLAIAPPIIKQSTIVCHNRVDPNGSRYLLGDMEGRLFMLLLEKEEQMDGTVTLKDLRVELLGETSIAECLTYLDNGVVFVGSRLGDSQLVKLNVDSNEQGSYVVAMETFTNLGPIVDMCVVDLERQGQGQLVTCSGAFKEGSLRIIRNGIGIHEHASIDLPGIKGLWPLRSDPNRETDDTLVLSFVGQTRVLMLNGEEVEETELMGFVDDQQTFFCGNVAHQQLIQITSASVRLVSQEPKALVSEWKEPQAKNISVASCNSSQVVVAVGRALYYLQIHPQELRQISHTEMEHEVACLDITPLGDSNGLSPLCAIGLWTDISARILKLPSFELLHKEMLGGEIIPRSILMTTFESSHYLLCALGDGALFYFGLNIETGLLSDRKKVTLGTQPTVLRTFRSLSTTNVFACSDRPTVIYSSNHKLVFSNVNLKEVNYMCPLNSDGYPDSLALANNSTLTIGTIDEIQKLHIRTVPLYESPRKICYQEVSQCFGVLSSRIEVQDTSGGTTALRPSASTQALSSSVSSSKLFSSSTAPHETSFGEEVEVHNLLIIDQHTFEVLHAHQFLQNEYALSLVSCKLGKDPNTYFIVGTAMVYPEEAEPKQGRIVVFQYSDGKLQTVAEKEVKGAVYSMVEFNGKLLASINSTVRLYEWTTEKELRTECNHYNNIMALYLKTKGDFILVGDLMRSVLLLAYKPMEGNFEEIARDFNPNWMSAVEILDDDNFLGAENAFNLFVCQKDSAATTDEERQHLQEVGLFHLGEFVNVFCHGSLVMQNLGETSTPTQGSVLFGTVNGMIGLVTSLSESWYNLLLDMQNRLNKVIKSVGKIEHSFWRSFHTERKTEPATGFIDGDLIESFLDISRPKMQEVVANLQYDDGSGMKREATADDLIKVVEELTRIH

| Structure (SMILES) | IC50 (CRBN/DDB1) [nM] | DC50 (ER [1]) [nM] | Dmax (ER [1]; maximal ER degradation) [%] | DC50 (ER [2]) [nM] | Dmax (ER [2]) [%] | IC50 (ERα_LBD(GST)) [nM] | IC50 (MCF-7 cells) [nM] | IC50 (T47D cells) [nM] | T47D Dmax % (ER [1]; maximal ER degradation) | MCF7 Dmax % (ER [2]; maximal ER degradation) |
| --- | --- | --- | --- | --- | --- | --- | --- | --- | --- | --- |
| O=C1CCC(N2Cc3cc4c(cc3C2=O)CN(C(=O)CN2CCC3(CC2)CN(c2ccc([C@@H]5c6ccc(O)cc6OC[C@@H]5c5ccccc5)cc2)C3)C4)C(=O)N1 (stereo partly drawn) [Compound A49, 3-(6-(2-(2-(4-((3S,4R)-7-hydroxy-3-phenylchroman-4-yl)phenyl)-2,7-diazaspiro[3.5]nonan-7-yl)acetyl)-1-oxo-3,5,6,7-tetrahydropyrrolo[3,4-f]isoindol-2(1H)-yl)piperidine-2,6-dione] | 50 to 500 | 1 to 10 | 50 to 75 | 1 to 10 | 50 to 75 | < 5 |  |  |  |  |
| O=C1CC[C@@H](N2Cc3cc4c(cc3C2=O)CN(C(=O)CN2CCC3(CC2)CCN(c2ccc([C@H]5c6ccc(O)cc6OC[C@H]5c5ccccc5)cc2)CC3)C4)C(=O)N1 (single isomer, unassigned) [Compound A41] | 50 to 500 | < 1 | ≥ 75 | 1 to 10 | 50 to 75 | ≥ 5 |  |  |  |  |
| O=C1CC[C@H](N2Cc3cc4c(cc3C2)N2CCN(C[C@@H]3COC5(CCN(c6ccc([C@H]7c8ccc(O)cc8OC[C@H]7c7ccccc7)cc6F)CC5)C3)C[C@H]2CO4)C(=O)N1 [Compound A161, (S)-3-((S)-3-(((R)-8-(2-fluoro-4-((3R,4S)-7-hydroxy-3-phenylchroman-4-yl)phenyl)-1-oxa-8-azaspiro[4.5]decan-3-yl)methyl)-1,2,3,4,4a, 5,8,10-octahydro-9H-pyrazino[1′,2′:4,5][1,4]oxazino[2,3-f]isoindol-9-yl)piperidine-2,6-dione] | 50 to 500 | < 1 | ≥ 75 | < 1 | 50 to 75 |  | < 50 |  |  |  |
| O=C1CC[C@H](NC(=O)c2ccc3c(n2)OC[C@H]2CN(CC4CCC5(CC4)CN(c4ccc([C@@H]6c7ccc(O)cc7OC[C@@H]6c6ccccc6)cc4)C5)CCN32)C(=O)N1 [Compound A142, (R)-N-((S)-2,6-dioxopiperidin-3-yl)-3-((2-(4-((3S,4R)-7-hydroxy-3-phenylchroman-4-yl)phenyl)-2-azaspiro[3.5]nonan-7-yl)methyl)-1,2,3,4,4a,5-hexahydropyrazino[1,2-d]pyrido[2,3-b][1,4]oxazine-8-carboxamide] | 500 to 5000 | < 1 | 50 to 75 | 1 to 10 | 50 to 75 | < 5 |  |  |  |  |
| O=C1CC[C@@H](N2Cc3cc4c(cc3C2=O)OC[C@@H]2CN(CC3CC5(CCN(c6ccc([C@H]7c8ccc(O)cc8OC[C@H]7c7ccccc7)cc6)CC5)C3)CCN42)C(=O)N1 [Compound A96, (R)-3-((S)-3-((7-(4-((3R,4S)-7-hydroxy-3-phenylchroman-4-yl)phenyl)-7-azaspiro[3.5]nonan-2-yl)methyl)-8-oxo-1,2,3,4,4a,5,8,10-octahydro-9H-pyrazino[1′,2′:4,5][1,4]oxazino[2,3-f]isoindol-9-yl)piperidine-2,6-dione] | 50 to 500 | < 1 | 50 to 75 | < 1 | 50 to 75 |  | < 50 | < 50 |  |  |
| O=C1CCC(N2Cc3c(ccc4c3OCC43CCN(CC4CC5(CCN(c6ccc([C@@H]7c8ccc(O)cc8OC[C@@H]7c7ccccc7)cc6)CC5)C4)CC3)C2=O)C(=O)N1 (stereo partly drawn) [Compound A113, 3-(1′-((7-(4-((3S,4R)-7-hydroxy-3-phenylchroman-4-yl)phenyl)-7-azaspiro[3.5]nonan-2-yl)methyl)-6-oxo-6,8-dihydro-2H,7H-spiro[furo[2,3-e]isoindole-3,4′-piperidin]-7-yl)piperidine-2,6-dione] | < 50 | < 1 | 50 to 75 | < 1 | 50 to 75 |  | < 50 | > 5000 |  |  |
| O=C1CCC(N2Cc3c(ccc4c3OC[C@H]3CN(CC5CCN(c6ccc([C@H]7c8ccc(O)cc8OC[C@H]7c7ccccc7)cn6)CC5)CCN43)C2=O)C(=O)N1 (single isomer, unassigned) [Compound A64] | 50 to 500 | 1 to 10 | 50 to 75 | 1 to 10 | 25 to 50 | < 5 |  |  |  |  |
| O=C1CC[C@@H](Nc2ccc(C3CCN(CC4CCC5(CC4)CN(c4ccc([C@H]6c7ccc(O)cc7OC[C@H]6c6ccccc6)cc4)C5)CC3)cc2)C(=O)N1 (single isomer, unassigned) [Compound A140] | 500 to 5000 | < 1 | 50 to 75 | < 1 | 50 to 75 | < 5 |  |  |  |  |
| O=C1CC[C@H](NC(=O)c2ccc3c(n2)OC[C@H]2CN(C[C@H]4COC5(CCN(c6ccc([C@@H]7c8ccc(O)cc8OC[C@@H]7c7ccccc7)cc6)CC5)C4)CCN32)C(=O)N1 [Compound A147, (R)-N-((S)-2,6-dioxopiperidin-3-yl)-3-(((S)-8-(4-((3S,4R)-7-hydroxy-3-phenylchroman-4-yl)phenyl)-1-oxa-8-azaspiro[4.5]decan-3-yl)methyl)-1,2,3,4,4a,5-hexahydropyrazino[1,2-d]pyrido[2,3-b][1,4]oxazine-8-carboxamide] | 500 to 5000 | < 1 | 50 to 75 | < 1 | 50 to 75 | < 5 |  |  |  |  |
| O=C1CCC(N2C(=O)c3cc4c(cc3C2=O)CN(CC(=O)N2CCC3(CC2)CN(c2ccc([C@@H]5c6ccc(O)cc6OC[C@@H]5c5ccccc5)cc2)C3)C4)C(=O)N1 (single isomer, unassigned) [Compound A44] | 50 to 500 | < 1 | 50 to 75 | 1 to 10 | 50 to 75 | < 5 |  |  |  |  |
| COc1cc(N2CCC(CN3CCN(c4ccc(C(=O)NC5CCC(=O)NC5=O)nc4)CC3)CC2)c(F)cc1[C@H]1c2ccc(O)cc2OC[C@H]1c1ccccc1 (stereo partly drawn) [Compound A110, N-(2,6-dioxopiperidin-3-yl)-5-(4-((1-(2-fluoro-4-((3R,4R)-7-hydroxy-3-phenylchroman-4-yl)-5-methoxyphenyl)piperidin-4-yl)methyl)piperazin-1-yl)picolinamide] | > 5000 | < 1 |  | < 1 |  | < 5 |  |  | B (“B”: >50% and <75%) | B (“B”: >50% and <75%) |
| O=C1CCC(N2Cc3c(ccc4c3OCC43CCN(CC4COC5(CCN(c6ccc([C@H]7c8ccc(O)cc8OC[C@H]7c7ccccc7)cc6)CC5)C4)CC3)C2=O)C(=O)N1 (stereo partly drawn) [Compound A146, 3-(1′-((8-(4-((3R,4S)-7-hydroxy-3-phenylchroman-4-yl)phenyl)-1-oxa-8-azaspiro[4.5]decan-3-yl)methyl)-6-oxo-6,8-dihydro-2H,7H-spiro[furo[2,3-e]isoindole-3,4′-piperidin]-7-yl)piperidine-2,6-dione] | < 50 | 1 to 10 | 25 to 50 | 1 to 10 | 50 to 75 | ≥ 5 |  |  |  |  |
| O=C1CC[C@@H](NC(=O)c2ccc(N3CCN(CC4COC5(CCN(c6ccc([C@H]7c8ccc(O)cc8OC[C@H]7c7ccccc7)cc6)CC5)C4)CC3)cn2)C(=O)N1 (single isomer, unassigned) [Compound A145] | > 5000 | < 1 | 50 to 75 | 1 to 10 | 50 to 75 | < 5 |  |  |  |  |
| COc1cc(N2CCC(CN3CCN4c5ccc6c(c5OC[C@H]4C3)CN(C3CCC(=O)NC3=O)C6=O)CC2)ccc1[C@@H]1c2ccc(O)cc2OC[C@@H]1c1ccccc1 (single isomer, unassigned) [Compound A77] | 500 to 5000 | < 1 | 50 to 75 | < 1 | 50 to 75 | < 5 |  |  |  |  |
| O=C1CCC(N2Cc3cc4c(cc3C2=O)CN(C(=O)C2CCN(C3CCN(c5ccc([C@@H]6c7ccc(O)cc7OC[C@@H]6c6ccccc6)cc5)CC3)CC2)C4)C(=O)N1 (single isomer, unassigned) [Compound A81] | 500 to 5000 | < 1 | ≥ 75 | < 1 | ≥ 75 | < 5 |  |  |  |  |

From patent US20260000676A1, “CHROMAN DERIVATIVES AS ESTROGEN RECEPTOR DEGRADERS” (THE REGENTS OF THE UNIVERSITY OF MICHIGAN, priority 2022, published 2026)
